Numbers after ± are expanded uncertainties.
Test: osmotic coefficient (dimensionless); mn = molality of the nth substance listed, in mol/kg
Details: 298.15 K, 100 kPa, Liquid, isopiestic method

Compound | osmotic coefficient (m1 = 0.9956) | osmotic coefficient (m1 = 2.002) | osmotic coefficient (m1 = 1.004) | osmotic coefficient (m1 = 2.01)
[Cl-].[K+] [potassium chloride] + O | 0.901 ± 0.011 | 0.916 ± 0.011 |  | 
[Na+].[OH-] [sodium hydroxide] + O |  |  | 0.9589 ± 0.0089 | 1.032 ± 0.0089
